The target of assay [1] is T1, human somatostatin receptor subtype 5 (Homo sapiens, UniProt P35346).
T1 construct: expressed in transfected cells
The experiment in a line: cAMP assay for SST5R (inhibition of cAMP in CHO-K1 cells). The format is cell-based. To be noted: for pEC50: inhibition of cAMP via human SST5 receptor, read-out: SST5 potency; for Fold selectivity for SST5 vs SST2: class symbols, SST5 receptor over SST2 receptor. The procedure, abridged:
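CHO-K1 cells stably expressing human SSTR5 were treated 20 min at 37 °C with compounds plus 1.6 μM NKH477 in HBSS, 0.5 mM HEPES pH 7.4, 0.1% BSA, 0.2 mM IBMX. Lysate cAMP measured by HTRF against a standard curve; EC50 from cAMP-versus-concentration plots.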
In general terms: cAMP levels reflect the balance of adenylyl cyclase and phosphodiesterase activity.

The target of assay [2] is T2, human somatostatin receptor subtype 2 (Homo sapiens, UniProt P30874).
T2 construct: expressed in transfected cells
T2 sequence (P30874 whole entry): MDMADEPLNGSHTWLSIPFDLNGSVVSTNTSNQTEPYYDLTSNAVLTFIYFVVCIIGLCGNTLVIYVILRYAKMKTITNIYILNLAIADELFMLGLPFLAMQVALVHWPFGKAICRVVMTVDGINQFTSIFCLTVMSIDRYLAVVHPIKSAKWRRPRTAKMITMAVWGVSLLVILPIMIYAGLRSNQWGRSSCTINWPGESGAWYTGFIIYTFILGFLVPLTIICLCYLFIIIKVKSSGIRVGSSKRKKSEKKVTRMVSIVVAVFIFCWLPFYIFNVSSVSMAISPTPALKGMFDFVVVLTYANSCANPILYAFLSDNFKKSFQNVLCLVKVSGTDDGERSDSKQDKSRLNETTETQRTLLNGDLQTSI
The assay can be described thus: cAMP assay for SST2R (inhibition of cAMP in CHO-K1 cells). The format is cell-based. The following applies: Table B; inhibition of cAMP via human SST2 receptor; read-out: SST2 potency. The essentials:
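CHO-K1 cells stably expressing human SSTR2, plated 4 days prior, treated 20 min at 37° C with 1.6 μM NKH477 plus compound dilutions in HBSS/HEPES pH 7.4/0.1% BSA/0.2 mM IBMX. Lysate cAMP measured by HTRF against standard curve; EC50 from concentration-response.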

Structures are written as SMILES. pEC50: −log10 of the molar value. Where two headings read alike, the source gives them in different places.

T1 sequence (P35346 whole entry): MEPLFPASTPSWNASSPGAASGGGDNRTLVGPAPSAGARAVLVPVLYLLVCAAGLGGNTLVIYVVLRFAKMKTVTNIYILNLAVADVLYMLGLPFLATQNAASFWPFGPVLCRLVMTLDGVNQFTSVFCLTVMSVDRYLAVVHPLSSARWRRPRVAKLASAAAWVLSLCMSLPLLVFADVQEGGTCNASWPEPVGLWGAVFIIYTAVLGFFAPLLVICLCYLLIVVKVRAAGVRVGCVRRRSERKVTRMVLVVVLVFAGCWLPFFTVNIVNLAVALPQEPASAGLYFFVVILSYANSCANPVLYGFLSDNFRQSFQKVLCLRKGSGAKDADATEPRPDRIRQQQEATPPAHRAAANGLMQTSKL

Take `N#Cc1ncc(C(=O)NCCCc2ccccc2)c(N2CC[C@H](N)C2)c1-c1cc(F)cc(F)c1` [1-110, 4-[(3S)-3-aminopyrrolidin-1-yl]-6-cyano-5-(3,5-difluorophenyl)-N-(3-phenylpropyl)pyridine-3-carboxamide]: the values for the pEC50 in assay [1] (Table A), in assay [1] (Table B) and in assay [2] were greater than 8.00, greater than 8.00 and less than 6.00, respectively. In addition, the “Fold selectivity for SST5 vs SST2” value in assay [1] (Table B) is “+++ (+++=>500)”.
For the compound `C[C@H](NC(=O)c1cnc(C#N)c(-c2ccnc(C(F)(F)F)c2)c1N1CC[C@](C)(N)C1)C1CC1` [1-129, 4-[(3S)-3-amino-3-methylpyrrolidin-1-yl]-2-cyano-N-[(1S)-1-cyclopropylethyl]-2′-(trifluoromethyl)-[3,4′-bipyridine]-5-carboxamide], the pEC50 was greater than 8.00 in assay [1] (Table A), greater than 8.00 in assay [1] (Table B) and 6.00 to 7.00 in assay [2]. The “Fold selectivity for SST5 vs SST2” value in assay [1] (Table B) is listed as “+++ (+++=>500)”.
For `C[C@]1(N)CCN(c2c(C(=O)NC3CC(F)(F)C3)cncc2-c2cc(F)cc(F)c2)C1` [1-30, 4-[(3S)-3-amino-3-methylpyrrolidin-1-yl]-N-(3,3-difluorocyclobutyl)-5-(3,5-difluorophenyl)pyridine-3-carboxamide], the pEC50 is greater than 8.00 in assay [1] (Table A), greater than 8.00 in assay [1] (Table B) and 6.00 to 7.00 in assay [2]. Also, the “Fold selectivity for SST5 vs SST2” value in assay [1] (Table B) is “++ (++=100 to 499)”.
With `N[C@H]1CCN(c2c(C(=O)NC34CC(F)(C3)C4)cnc(C(F)(F)F)c2-c2cc(F)cc(F)c2)C1` [1-216, 4-[(3S)-3-aminopyrrolidin-1-yl]-5-(3,5-difluorophenyl)-N-{3-fluorobicyclo[1.1.1]pentan-1-yl}-6-(trifluoromethyl)pyridine-3-carboxamide], the pEC50 in assay [1] (Table A) was greater than 8.00; in assay [1] (Table B) it was greater than 8.00; in assay [2], less than 6.00. Further, the “Fold selectivity for SST5 vs SST2” value in assay [1] (Table B) is listed as “+++ (+++=>500)”.
As to `COc1ncc(C(=O)N[C@@H](C)C(F)(F)F)c(N2CC[C@](C)(N)C2)c1-c1ccc(Cl)c(F)c1` [1-260, 4-[(3S)-3-amino-3-methylpyrrolidin-1-yl]-5-(4-chloro-3-fluorophenyl)-6-methoxy-N-[(2S)-1,1,1-trifluoropropan-2-yl]pyridine-3-carboxamide], the results for the pEC50 in assay [1] (Table A), in assay [1] (Table B) and in assay [2] were greater than 8.00, greater than 8.00 and 6.00 to 7.00, respectively. For the same compound, the “Fold selectivity for SST5 vs SST2” value in assay [1] (Table B) is “+++ (+++=>500)”.
On to `Cc1ncc(C(=O)NC23CC(C2)C3)c(N2CC[C@](C)(N)C2)c1-c1cc(F)cc(F)c1` [1-74, 4-[(3S)-3-amino-3-methylpyrrolidin-1-yl]-N-{bicyclo[1.1.1]pentan-1-yl}-5-(3,5-difluorophenyl)-6-methylpyridine-3-carboxamide], for which the figures for the pEC50 in assay [1] (Table A), in assay [1] (Table B) and in assay [2] were greater than 8.00, greater than 8.00 and less than 6.00, respectively. Also, in assay [1] (Table B), the “Fold selectivity for SST5 vs SST2” value is “+++ (+++=>500)”.
As for `N#Cc1ncc(C(=O)NC23CC(C2)C3)c(N2C[C@@H](N)[C@H](F)C2)c1-c1cc(F)cc(F)c1` [1-101, 4-[(3R,4R)-3-amino-4-fluoropyrrolidin-1-yl]-N-{bicyclo[1.1.1]pentan-1-yl}-6-cyano-5-(3,5-difluorophenyl)pyridine-3-carboxamide], the pEC50 is greater than 8.00 in assay [1] (Table A), greater than 8.00 in assay [1] (Table B) and less than 6.00 in assay [2]. Besides, in assay [1] (Table B), the “Fold selectivity for SST5 vs SST2” value was “+++ (+++=>500)”.
Regarding `Cc1ncc(C(=O)NC2CCC(F)(F)CC2)c(N2CC[C@](C)(N)C2)c1-c1cc(F)cc(F)c1` [1-181, 4-[(3S)-3-amino-3-methylpyrrolidin-1-yl]-N-(4,4-difluorocyclohexyl)-5-(3,5-difluorophenyl)-6-methylpyridine-3-carboxamide], the pEC50 in assay [1] (Table A) is greater than 8.00; in assay [1] (Table B) it was greater than 8.00; in assay [2], 6.00 to 7.00. Further, in assay [1] (Table B), the “Fold selectivity for SST5 vs SST2” value was “+++ (+++=>500)”.
As to `C[C@]1(N)CCN(c2c(C(=O)NCc3ncccn3)cnc(C#N)c2-c2cc(F)cc(F)c2)C1` [1-108, 4-[(3S)-3-amino-3-methylpyrrolidin-1-yl]-6-cyano-5-(3,5-difluorophenyl)-N-[(pyrimidin-2-yl)methyl]pyridine-3-carboxamide], the pEC50 is greater than 8.00 in assay [1] (Table A), greater than 8.00 in assay [1] (Table B) and less than 6.00 in assay [2]. In assay [1] (Table B), the “Fold selectivity for SST5 vs SST2” value is “+++ (+++=>500)”.
Turning to `N#Cc1ncc(C(=O)NC(C2CC2)C2CC2)c(N2CC[C@H](N)C2)c1-c1cc(F)cc(F)c1` [1-70, 4-[(3S)-3-aminopyrrolidin-1-yl]-6-cyano-N-(dicyclopropylmethyl)-5-(3,5-difluorophenyl)pyridine-3-carboxamide], the figures for the pEC50 in assay [1] (Table A), in assay [1] (Table B) and in assay [2] were greater than 8.00, greater than 8.00 and less than 6.00, respectively. For the same compound, the “Fold selectivity for SST5 vs SST2” value in assay [1] (Table B) was “+++ (+++=>500)”.
With `N#Cc1ncc(C(=O)NC23CC(C2)C3)c(N2CC[C@@](N)(CO)C2)c1-c1cc(F)cc(F)c1` [1-98, 4-[(3S)-3-amino-3-(hydroxymethyl)pyrrolidin-1-yl]-N-{bicyclo[1.1.1]pentan-1-yl}-6-cyano-5-(3,5-difluorophenyl)pyridine-3-carboxamide], the results for the pEC50 in assay [1] (Table A), in assay [1] (Table B) and in assay [2] were greater than 8.00, greater than 8.00 and 6.00 to 7.00, respectively. The “Fold selectivity for SST5 vs SST2” value in assay [1] (Table B) is reported as “++ (++=100 to 499)”.
In the case of `C[C@H](NC(=O)c1cnc(C#N)c(-c2cc(F)cc(F)c2)c1N1CC[C@](C)(N)C1)C1CC1` [1-77, 4-[(3S)-3-amino-3-methylpyrrolidin-1-yl]-6-cyano-N-[(1S)-1-cyclopropylethyl]-5-(3,5-difluorophenyl)pyridine-3-carboxamide], the pEC50 in assay [1] (Table A) was greater than 8.00; in assay [1] (Table B) it was greater than 8.00; in assay [2], 7.00 to 8.00. Moreover, the “Fold selectivity for SST5 vs SST2” value in assay [1] (Table B) was “+++ (+++=>500)”.
Turning to `CCCCNC(=O)c1cnc(C#N)c(-c2ccnc(OC)c2)c1N1CC[C@](C)(N)C1` [1-271], the pEC50 was greater than 8.00 in assay [1] (Table A), greater than 8.00 in assay [1] (Table B) and less than 6.00 in assay [2]. In assay [1] (Table B), the “Fold selectivity for SST5 vs SST2” value was “+++ (+++=>500)”.
Turning to `COc1ncc(C(=O)NC23CC(F)(C2)C3)c(N2CC[C@H](N)C2)c1-c1cc(F)cc(F)c1` [1-196, 4-[(3S)-3-aminopyrrolidin-1-yl]-5-(3,5-difluorophenyl)-N-{3-fluorobicyclo[1.1.1]pentan-1-yl}-6-methoxypyridine-3-carboxamide], the pEC50 in assay [1] (Table A) was greater than 8.00; in assay [1] (Table B), greater than 8.00; in assay [2], less than 6.00. In addition, in assay [1] (Table B), the “Fold selectivity for SST5 vs SST2” value was “+++ (+++=>500)”.
For `COc1ncc(C(=O)N[C@@H](C)C(F)(F)F)c(N2CC[C@](C)(N)C2)c1-c1cc(F)cc(OC(F)F)c1` [1-188, 4-[(3S)-3-amino-3-methylpyrrolidin-1-yl]-5-[3-(difluoromethoxy)-5-fluorophenyl]-6-methoxy-N-[(2S)-1,1,1-trifluoropropan-2-yl]pyridine-3-carboxamide], the pEC50 in assay [1] (Table A) was greater than 8.00; in assay [1] (Table B), greater than 8.00; in assay [2] it was 6.00 to 7.00. Besides, the “Fold selectivity for SST5 vs SST2” value in assay [1] (Table B) is on record as “+++ (+++=>500)”.
`COc1cc(C#N)cc(-c2c(C(F)(F)F)ncc(C(=O)N[C@@H](C)C3CC3)c2N2CC[C@](C)(N)C2)c1` [1-197, 4-[(3S)-3-amino-3-methylpyrrolidin-1-yl]-5-(3-cyano-5-methoxyphenyl)-N-[(1S)-1-cyclopropylethyl]-6-(trifluoromethyl)pyridine-3-carboxamide]: the pEC50 in assay [1] (Table A) was greater than 8.00; in assay [1] (Table B), greater than 8.00; in assay [2], 6.00 to 7.00. Moreover, in assay [1] (Table B), the “Fold selectivity for SST5 vs SST2” value is reported as “+++ (+++=>500)”.
As to `CCC(CC)NC(=O)c1cnc(C#N)c(-c2ccnc(C(F)(F)F)c2)c1N1CC[C@](C)(N)C1` [1-249, 4-[(3S)-3-amino-3-methylpyrrolidin-1-yl]-2-cyano-N-(pentan-3-yl)-2′-(trifluoromethyl)-[3,4′-bipyridine]-5-carboxamide], the results for the pEC50 in assay [1] (Table A), in assay [1] (Table B) and in assay [2] were greater than 8.00, greater than 8.00 and 6.00 to 7.00, respectively. The “Fold selectivity for SST5 vs SST2” value in assay [1] (Table B) was “+++ (+++=>500)”.
Consider `C[C@H](NC(=O)c1cncc(-c2cccc3c2OC(F)(F)O3)c1N1CC[C@](C)(N)C1)C1CC1` [1-163, 4-[(3S)-3-amino-3-methylpyrrolidin-1-yl]-N-[(1S)-1-cyclopropylethyl]-5-(2,2-difluoro-2H-1,3-benzodioxol-4-yl)pyridine-3-carboxamide], for which the pEC50 in assay [1] (Table A) was greater than 8.00; in assay [1] (Table B), greater than 8.00; in assay [2], 6.00 to 7.00. In assay [1] (Table B), the “Fold selectivity for SST5 vs SST2” value is “++ (++=100 to 499)”.
For the compound `COc1ncc(C(=O)N[C@@H](C)C2CC2)c(N2CC[C@](C)(N)C2)c1-c1ccnc(C(F)(F)F)c1` [1-166, 4-[(3S)-3-amino-3-methylpyrrolidin-1-yl]-N-[(1S)-1-cyclopropylethyl]-2-methoxy-2′-(trifluoromethyl)-[3,4′-bipyridine]-5-carboxamide], the figures for the pEC50 in assay [1] (Table A), in assay [1] (Table B) and in assay [2] were greater than 8.00, greater than 8.00 and less than 6.00, respectively. Further, in assay [1] (Table B), the “Fold selectivity for SST5 vs SST2” value is listed as “+++ (+++=>500)”.
For the compound `C[C@H](NC(=O)c1cnc(C#N)c(-c2cccc(OC(F)F)c2)c1N1CC[C@](C)(N)C1)C(F)(F)F` [1-168, 4-[(3S)-3-amino-3-methylpyrrolidin-1-yl]-6-cyano-5-[3-(difluoromethoxy)phenyl]-N-[(2S)-1,1,1-trifluoropropan-2-yl]pyridine-3-carboxamide], the pEC50 in assay [1] (Table A) is greater than 8.00; in assay [1] (Table B), greater than 8.00; in assay [2] it was 6.00 to 7.00. Moreover, in assay [1] (Table B), the “Fold selectivity for SST5 vs SST2” value is recorded as “+++ (+++=>500)”.

(Values after patent US12600709B2, “Nonpeptide somatostatin type 5 receptor agonists and uses thereof” (Crinetics Pharmaceuticals, Inc., priority 2019, dated 2026).)
